The melting point is the temperature of the solid-liquid transition.

Results on 87 compounds are retold here after a melting point compilation (Tetko et al.; mined from patent text by program, amines drawn as free bases though some values may be those of a salt).

For the compound `CC12CC(=O)C3C(CCC4CC5OC5CC43C)C1CCC2C#N` (configuration not stated), the melting point was 206 to 208 °C.

On to `CCCOc1ccccc1-c1nc2nc(N(CC)CCO)ncc2c(=O)[nH]1`, for which the melting point was in the range of 141 to 142 °C.

Compound `CS(=O)(=O)c1ccc2cc[nH]c2c1` had a melting point of 149 to 152 °C.

In turn, `CCCCOc1ccc(-c2ncc(C(=O)OCC)cn2)cc1` had a melting point of 99.1 °C.

Consider `CC(C)(CNC(=O)Cc1cnc[nH]1)c1ccc(C(=O)Nc2cn3cc(C(F)(F)F)ccc3n2)cc1`, for which the melting point is 261 to 263 °C.

The compound `CCCCCCCCCCCC(=O)O[C@H](CCCCCCCCCCC)CC(=O)N[C@@H](CO)C(=O)OCc1ccccc1` showed a melting point of 53 to 54 °C.

In turn, `Cn1cc(C2=C(c3cn(CCC(=O)O)c4ccccc34)C(=O)NC2=O)c2ccccc21` returned a melting point of 256 to 258 °C.

For `CC1(C(=O)Nc2ccc(OCC3CC3)c(Cl)c2)CC1`, the melting point lay within 111 to 113 °C.

For `CC(O)(c1ccccc1)c1cc(Cl)ccc1O` (configuration not stated), the melting point came to 106 °C.

For the compound `O=c1c([N+](=O)[O-])c(Cl)nc2sc(CCC3CCCCC3)nn12`, the melting point was 136 to 137 °C.

`CCOC(=O)C(Cc1ccc(C(F)(F)F)cc1)C(=O)c1ccc(Oc2ccccc2)cc1` (configuration not stated) came in with a melting point of 67 to 68 °C.

Take `Cc1ccc(CCN2CCN(c3noc4ccccc34)CC2)c2c1C(C)(C)CCN2`: the melting point came to 135 °C.

`COc1ccc(C2(c3ccc(OC(F)F)cc3)N=C(N)N(C)C2=O)cc1C#N` (configuration not stated) displayed a melting point of 104 to 105 °C.

Regarding `CC(C)(C)c1ocnc1/C=C1\NC(=O)[C@H](Cc2ccccc2)NC1=O`, the melting point was in the range of 52 to 56 °C.

Turning to `Cc1cc(C)c(C(=O)c2ccc(Cl)cc2)c(C)c1`, the melting point lay in the range of 65.5 to 66.5 °C.

On to `COc1ccc(C2Sc3cc(Cc4ccc(C)s4)ccc3N(CCN(C)C)C(=O)C2OC(C)=O)cc1` (configuration not stated), for which the melting point lay within 131 to 134 °C.

In turn, `COc1ccc(-c2[nH]nc3c2C(=O)c2c(NC(=O)Cc4ccc(Cl)c(Cl)c4)cccc2-3)cc1` returned a melting point of 299 °C.

For `Cc1ccccc1C1CCN(C(=O)CCC(=O)c2ccc3c(c2)CCN(C(=O)C(F)(F)F)CC3)CC1`, the melting point was in the range of 130 to 131 °C.

In turn, `COc1cn(Cc2cccc3ccccc23)c(=O)o1` displayed a melting point of 80 to 82 °C.

For the compound `Cn1cc(C(=O)CCl)cc1C(=O)c1ccc([N+](=O)[O-])cc1`, the melting point is 173 to 176 °C.

`C[Si](C)(C)C#Cc1ccc(Oc2ccc(C(=O)C(=O)c3cccc(C(=O)C(=O)c4ccc(Oc5ccc(C#C[Si](C)(C)C)cc5)cc4)c3)cc2)cc1` had a melting point of 110 to 111 °C.

For `COc1cccc([C@H]2O[C@H](CC(=O)NCc3ccc(C(=O)O)o3)C(=O)N(CC(C)(C)CO)c3ccc(Cl)cc32)c1OC`, the melting point fell in the range of 128 to 131 °C.

As to `CC(C)OC(=O)N1CCN(c2ccn3ncc(Br)c3n2)CC1`, the melting point was 78 to 79 °C.

Turning to `Cc1ccc2c(c1)c1cc(-c3ccc(Cl)cc3Cl)c(=O)n(C)c1n2CC#N`, the melting point worked out at 270 °C.

Regarding `CCOC(=O)C(C)(C(=O)OCC)c1ccc(N)c(C(C(=O)OC)C(=O)OC)c1`, the melting point lay within 91 to 92 °C.

`COc1ccc(Cl)cc1C1(F)C(=O)Nc2cc(I)ccc21` (configuration not stated) had a melting point of 205 to 210 °C.

The compound `CC(=O)c1ccc(N2CCN(c3cccc(C)c3)CC2)nn1` yielded a melting point of 136 °C.

`CN(C)Cc1nc(-c2ccccc2)cn1Cc1ccccc1` registered a melting point of 78 to 80 °C.

As for `COc1ccnc(CCc2nc3cc(-c4ccc(S(=O)(=O)N5CCN(Cc6ccccc6)CC5)cc4)cnc3[nH]2)c1`, the melting point was 160 to 162 °C.

On to `COc1ccc(Oc2ccc(F)cc2)cc1C#CC(C)N(O)C(N)=O` (configuration not stated), for which the melting point lay within 141 to 142 °C.

Regarding `CC(C)c1ccccc1-n1c(=O)[nH]c2c(C(N)=O)nc(-c3cccc(O)c3)nc21`, the melting point lay in the range of 322 to 324 °C.

Compound `CCN(CC)CCNC(=O)c1cc(F)c2cc(I)ccc2n1` had a melting point of 58 to 60 °C.

In turn, `O=c1oc(C(F)(F)F)ccc1-c1ccc(F)cc1F` returned a melting point of 98 to 100 °C.

`CCOC(=O)c1c(C(F)(F)F)nc(C(F)(F)F)c(C(=O)OCC)c1Br` had a melting point of 56 to 61 °C.

Regarding `COc1ccc(C(=O)C(Cl)=NO)cc1`, the melting point was 118 to 125 °C.

As to `CC(=O)NC[C@H]1CN(c2ccc(-n3nccc3-c3ccccn3)c(F)c2)C(=O)O1`, the melting point lay within 79.9 to 82.1 °C.

Consider `CCCCc1nn(-c2cc(NC(=O)CC)ccc2Cl)c(=O)n1Cc1ccc(-c2ccccc2S(=O)(=O)NC(=O)c2ccccc2Oc2ccccc2)cc1`, for which the melting point fell in the range of 113 to 116 °C.

For the compound `COc1ccnc(CCc2nc3cc(-c4ccc(O)cc4)cnc3[nH]2)c1`, the melting point is 206 to 208 °C.

In turn, `COc1ccc(CCNCC(O)c2ccc(C)s2)cc1OC` (configuration not stated) displayed a melting point of 108 to 110 °C.

`COC(=O)C1=Cc2cc(Br)ccc2N(CC2(C)OCCO2)CC1` displayed a melting point of 96 to 99 °C.

Turning to `Cc1cc(C)c2nc(CO)[nH]c2n1`, the melting point fell in the range of 244 to 246 °C.

Take `COc1c(OC)c(O)c2c(=O)c3ccc(O)c(OC)c3[nH]c2c1OC`: the melting point fell in the range of 214 to 215 °C.

`[N-]=[N+]=Nc1nc(NC(=O)c2ccccc2)nc2c1ncn2CC(O)CF` (racemic): the melting point came to 198 °C.

Turning to `COc1cc(C)c(C(=O)c2c(Cl)cccc2Cl)cc1Br`, the melting point is 159 °C.

In the case of `NS(=O)(=O)c1ccc(-n2nc(C(F)(F)F)cc2-c2ccc(F)cc2)cc1`, the melting point was in the range of 165 to 166 °C.

Take `COc1cc([N+](=O)[O-])cnc1Cl`: the melting point lay within 40 to 41 °C.

In turn, `O=c1ccn(C2CC(O)C(COC3(c4ccccc4)c4ccccc4Oc4ccccc43)O2)c(=O)[nH]1` (configuration not stated) returned a melting point of 157 to 160 °C.

Turning to `CCOCCN(c1cccc2cc(C(N)=S)[nH]c12)S(=O)(=O)c1cccs1`, the melting point stood at 182 °C.

The compound `CC(=O)CCc1ccc2ccccc2c1` showed a melting point of 56 to 58 °C.

In the case of `COc1nc2cccnc2n1-c1ccc(-c2nc(-c3nccs3)cn2-c2ccc(C)nc2)cc1`, the melting point is 190 to 192 °C.

On to `O=C(O)CCCc1ccc([N+](=O)[O-])cn1`, for which the melting point fell in the range of 108 to 110 °C.

For `COc1ccc(C(=O)n2c3c(c4ccccc42)CC(C(=O)O)CC3)cc1` (configuration not stated), the melting point came to 195 °C.

The compound `CCOC(=O)c1oc2ccc([N+](=O)[O-])cc2c1OC` returned a melting point of 90 to 90.4 °C.

As for `COc1ccc2c(c1)cc(-c1ccccc1)n2-c1ccc(O)cc1`, the melting point was 200 to 201 °C.

With `NNC1=NS(=O)(=O)c2cnccc2N1`, the melting point fell in the range of 290 to 292 °C.

The compound `CC(=O)N1c2ccccc2Sc2cc(F)ccc21` gave a melting point of 125 °C.

On to `CSc1ccc(C(C)Nc2nc(NC(C)=O)nc(C(F)(F)F)n2)cc1` (configuration not stated), for which the melting point stood at 132 °C.

On to `CC12C=CC(=O)CC1CCC1C2CCC2(C)C1CCC2(C)O` (configuration not stated), for which the melting point is 140 to 142 °C.

`COC(=O)c1cc2cccc(OCc3cccnc3)c2o1` returned a melting point of 117 to 118 °C.

`CC(C)c1nccn1-c1ccc([N+](=O)[O-])cc1SC(Cl)(Cl)Cl`: the melting point came to 135 °C.

Take `COc1ccc2c(c1)C(O)c1cc(CO)ccc1O2` (configuration not stated): the melting point was 142 to 143 °C.

Turning to `N#Cc1c(I)[nH]c(I)c1I`, the melting point lay within 257 to 258 °C.

On to `CC1(C)CC(OC(=O)CCCCCCCCC(=O)OC2CC(C)(C)N(CC#N)C(C)(C)C2)CC(C)(C)N1CC#N`, for which the melting point is 91 °C.

Regarding `O=C(CSc1ccccc1)Nc1ccccc1C(=O)O`, the melting point fell in the range of 166 to 167 °C.

The compound `c1cc(N2CCCCC2)ccc1OC12CCC(CC1)CC2` returned a melting point of 66 to 68 °C.

Regarding `O=C1N=CN(CC2CCCCC2)C12CCN(Cc1ccccc1)CC2`, the melting point lay in the range of 117 to 118 °C.

`CNC(=O)C(NC(=O)c1cn(C)nc1C(F)(F)F)C(CO)c1ccccc1` (configuration not stated) registered a melting point of 194 °C.

In the case of `N#Cc1ncn2c1N(C(=O)CN1CCC(c3ccccc3)CC1)CC=C2c1cccc(C(F)(F)F)c1`, the melting point fell in the range of 174 to 175 °C.

In turn, `CCOCc1nc2c(N)nc(C)c(C)c2n1CCC1CCN(Cc2ccccc2)CC1` yielded a melting point of 165 to 167 °C.

In turn, `CC(C)(C)CC(C)(C)Nc1cc(Cl)ccc1[N+](=O)[O-]` yielded a melting point of 108 °C.

`CCN(CC)CCC(=O)Nc1cccc2c1C(=O)c1c(NC(=O)CCN(CC)CC)cccc1C2=O` yielded a melting point of 166 to 167 °C.

Turning to `NC(=O)c1cnn2c1NCC=C2c1cccnc1`, the melting point lay in the range of 182 to 184 °C.

`CSc1cccc2c1CCn1cc(-c3ccccc3)nc1C2OC1CCN(C)CC1` (configuration not stated) returned a melting point of 134 °C.

The compound `O=C(O)COc1ccc(-c2nn(-c3ccccc3)c3ncccc23)cc1` displayed a melting point of 220 to 222 °C.

Turning to `CCC(=O)Nc1cccc2c1C(=O)N(C1(C)CCC(=O)NC1=O)C2=O` (configuration not stated), the melting point is 222 to 224 °C.

Consider `CS(=O)(=O)c1ccc(-c2cc(C#N)c(=O)[nH]c2-c2ccc(F)cc2)cc1`, for which the melting point is 294 to 296 °C.

`O=C(NCC12CC3CC(CC(C3)C1)C2)c1cc(-c2c(F)cccc2C(=O)O)ccc1Cl` showed a melting point of 108 to 113 °C.

Regarding `Cn1cc(-c2ccccc2)c(C(=O)NCCNC(=O)OC(C)(C)C)n1`, the melting point was found to be 145 °C.

The compound `CC(C)(C)OC(=O)N1CCN(c2cccc([N+](=O)[O-])c2)CC1` yielded a melting point of 82 to 92 °C.

Regarding `Clc1ccc2c(c1)N=C(N1CCNCC1)c1nccn1C2`, the melting point was in the range of 120 to 123 °C.

Take `CC(C)(C)OC(=O)Nc1cccc(-c2nc(=O)o[nH]2)c1`: the melting point came to 193 °C.

With `Cn1cc(C(=O)NCc2ccc(Cl)cc2)c(=O)c2cc(CN3CCOCC3)cc(C#Cc3ccccn3)c21`, the melting point is 234 to 236 °C.

Consider `CNC(=NC#N)NCc1ncc(-c2csc(N=C(N)N)n2)s1`, for which the melting point was 258 to 259 °C.

On to `CC(=O)NC(Cc1ccc(Cl)c(Cl)c1)C(=O)OCc1cc(C)cc(C)c1` (configuration not stated), for which the melting point was in the range of 118 to 119 °C.

`CCOC(=O)C(C#N)=CNc1ccc(C=C(C#N)C(=O)OCC)o1` showed a melting point of 206 to 208 °C.

In turn, `O=C(Cc1cccc(C(F)(F)F)c1)N1CCc2cc3c(cc2CC1)OCO3` registered a melting point of 102 to 104 °C.

Compound `CCOC(=O)c1cnc2c([N+](=O)[O-])cccc2c1N(C)C` showed a melting point of 76 to 77 °C.
